Source: the NIST ThermoML archive (doi:10.1016/j.tca.2007.03.018)
Numbers after ± are expanded uncertainties.

Test: Molar enthalpy of transition or fusion

Molar enthalpy of transition or fusion (Crystal 1, DSC): 70 ± 10 kJ/mol
Molar enthalpy of transition or fusion (Crystal 2, DSC): 1.3 ± 0.1 kJ/mol
Molar enthalpy of transition or fusion (Crystal 3, Adiabatic calorimetry): 1.15 ± 0.02 kJ/mol
Compound: C1C2CC3CC1CC(C14CC5CC(CC(C5)C1)C4)(C2)C3 [1,1'-biadamantane]
